pIC50: −log10 of the molar value.
Tests used:
[1] = test system: d-NADH oxidase activity of BL21*Δcyo membranes; experiment: d-NADH oxidase activity of E. coli BL21*Δcyo cytoplasmic membranes; assay type: biochemical, Escherichia coli; conditions: d-NADH as substrate, 30 °C
Method: (§1) The inhibitory effect of ND-011992 on the NADH oxidase activity of membranes from E. coli strain BL21*Δcyo was determined. This activity is mainly mediated by the primary NADH dehydrogenases and the terminal oxidases. Strain BL21*Δcyo chromosomally lacks the bo3-oxidase and contains the homologous bd-I and bd-II oxidases as the only terminal oxidases. BL21*Δcyo was grown in full medium, cells were harvested and disrupted and cytoplasmic membranes were prepared by differential centrifugation. With NADH as substrate, electrons might enter the respiratory chain either via complex I or via the alternative, non-energy converting NADH dehydrogenase, NDH-II. […] Second, deamino-NADH (d-NADH) was used as substrate to determine the d-NADH oxidase activity of BL21*Δcyo membranes. d-NADH is a substrate specific for complex I preventing electron entry to the respiratory chain via NDH-II[15],[16]. […] The shift of the IC50 in dependence from the substrate already indicates a high-affinity inhibition of respiratory complex I by ND-011992.
(§2) The (d-)NADH oxidase activity of cytoplasmic membranes was determined with an Clark-type oxygen electrode (Oxyview System, Hansatech Instruments) at 30 °C[19]. […] The non-enzymatic reaction was determined after formation of a stable baseline. […] The protein concentration of membranes were determined by the biuret-method[32]. […]

mitochondrial complex I = mitochondrial complex I (Bos taurus, UniProt P03887+P17694+P42026); assay type: biochemical, bovine
[2] = test system: NADH oxidase activity of membranes from E. coli strain BL21*Δcyo; experiment: NADH oxidase activity of E. coli BL21*Δcyo cytoplasmic membranes (Clark-type oxygen electrode); assay type: biochemical, Escherichia coli
Method: as §1, §2

E. coli bd-II oxidase = target: T1, E. coli bd-II oxidase (Escherichia coli, UniProt P26459); experiment: Duroquinol:oxygen oxidoreductase activity of isolated bd-II oxidase; assay type: biochemical
T1 construct: His-tag; made in house; host or cells: E. coli BL21*Δcyo/pET28b(+)::appChisBX
T1 sequence (P26458 whole entry): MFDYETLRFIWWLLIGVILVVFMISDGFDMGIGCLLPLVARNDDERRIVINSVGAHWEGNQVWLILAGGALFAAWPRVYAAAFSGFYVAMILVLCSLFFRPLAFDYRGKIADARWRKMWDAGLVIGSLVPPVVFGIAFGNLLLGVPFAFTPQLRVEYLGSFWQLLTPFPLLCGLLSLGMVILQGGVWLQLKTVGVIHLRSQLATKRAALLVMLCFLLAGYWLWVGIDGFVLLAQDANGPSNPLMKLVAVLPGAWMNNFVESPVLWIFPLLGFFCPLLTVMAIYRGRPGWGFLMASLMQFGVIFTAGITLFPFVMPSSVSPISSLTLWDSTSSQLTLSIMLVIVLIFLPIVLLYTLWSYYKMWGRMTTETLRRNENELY
T1 sequence (P24244 whole entry, further chain): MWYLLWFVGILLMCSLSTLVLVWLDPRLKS
T1 sequence (P26459 whole entry): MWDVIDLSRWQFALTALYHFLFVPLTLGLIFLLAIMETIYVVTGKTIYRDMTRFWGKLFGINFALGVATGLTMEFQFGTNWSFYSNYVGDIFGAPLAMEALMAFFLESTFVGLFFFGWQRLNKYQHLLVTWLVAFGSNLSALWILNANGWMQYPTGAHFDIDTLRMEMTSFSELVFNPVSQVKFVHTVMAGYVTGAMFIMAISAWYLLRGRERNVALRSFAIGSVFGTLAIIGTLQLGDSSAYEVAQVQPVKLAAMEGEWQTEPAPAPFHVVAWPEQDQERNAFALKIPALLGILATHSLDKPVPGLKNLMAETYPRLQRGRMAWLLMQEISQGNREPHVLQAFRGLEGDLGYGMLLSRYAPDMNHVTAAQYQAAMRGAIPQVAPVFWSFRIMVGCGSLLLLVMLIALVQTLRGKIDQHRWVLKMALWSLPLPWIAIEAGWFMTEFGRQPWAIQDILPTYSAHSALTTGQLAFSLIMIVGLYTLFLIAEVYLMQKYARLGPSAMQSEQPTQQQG
Method: (§3) E. coli bd-I oxidase was isolated from strain BL21*Δcyo/pET28b( +)::cydAhisBX[13], bd-II oxidase from strain BL21*Δcyo/pET28b( +)::appChisBX[19] and bo3 oxidase from strain BL21*Δcyo/pET28b( +)::cyoAhisBCD (see ‘Methods’). The index “his” indicates the subunit of the enzyme complexes decorated with a His-tag. All strains were grown under oxic conditions in full medium. Cells were harvested and disrupted and cytoplasmic membranes were prepared by differential centrifugation. Membrane proteins were extracted with the detergent lauryl maltose neopentyl glycol (LMNG) and purified to homogeneity by affinity-, anion exchange- and size exclusion-chromatography (see Supplementary Figs. S7–S9).
(§4) The affinity of ND-011992 towards the isolated oxidases was determined by its inhibition of the duroquinol:oxygen oxidoreductase activity measured as decrease of oxygen concentration. […] Thus, there is a significant two-fold difference in binding of ND-011992 towards the two homologous oxidases. Furthermore, the IC50 is higher than that to respiratory complex I, showing that the compound binds better to complex I than to bd-I and to bd-II oxidase. Incorporation of bromine to the compound led to significant changes of inhibition.
(§5) The duroquinol:oxygen oxidoreductase activity of isolated E. coli bd-I, bd-II and bo3 oxidase was determined by monitoring the oxygen consumption with a Clark-type oxygen electrode (Oxyview System, Hansatech Instruments)[20],[33]. All steps were conducted at 30 °C. The reaction chamber was filled with 2 mL 20 mM MOPS, 20 mM NaCl, 0.003% LMNG, pH 7.0. After formation of a stable baseline, 10 μL dithiothreitol (DTT) (1 M) and 5 μL duroquinone in ethanol (100 mM) were added and incubated for 1 min. The non-enzymatic reaction rate was determined. 10 μL enzyme in LMNG (2 mg/mL) were added to start the reaction. The rates were corrected for the non-enzymatic reaction. After 1 min, the reaction was inhibited by adding various amounts (0.01–50 µM) of ND-011992 and 2, respectively. Each data point was measured in triplicates. The standard deviation of each measurement is provided.

[3] = parameters: method as in PMID 33283973; conditions: as mentioned in the original publication; cited from earlier work
respiratory complex I = respiratory complex I (Escherichia coli, UniProt P0AFC7+P0AFD4+P33599); experiment: d-NADH:decyl-ubiquinone oxidoreductase activity of E. coli CBO cytoplasmic membranes; assay type: biochemical; conditions: 1 mM KCN
E. coli bo3 oxidase = target: T2, E. coli bo3 oxidase (Escherichia coli, UniProt P0ABI8); experiment: Duroquinol:oxygen oxidoreductase activity of isolated bo3 oxidase; assay type: biochemical
T2 construct: made in house; host or cells: E. coli BL21*Δcyo/pET28b(+)::cyoAhisBCD
T2 sequence (P0ABJ6 whole entry): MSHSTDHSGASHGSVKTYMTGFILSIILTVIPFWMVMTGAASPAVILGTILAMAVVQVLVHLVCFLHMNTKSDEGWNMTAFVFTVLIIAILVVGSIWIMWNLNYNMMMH
T2 sequence (P0ABJ3 whole entry, further chain): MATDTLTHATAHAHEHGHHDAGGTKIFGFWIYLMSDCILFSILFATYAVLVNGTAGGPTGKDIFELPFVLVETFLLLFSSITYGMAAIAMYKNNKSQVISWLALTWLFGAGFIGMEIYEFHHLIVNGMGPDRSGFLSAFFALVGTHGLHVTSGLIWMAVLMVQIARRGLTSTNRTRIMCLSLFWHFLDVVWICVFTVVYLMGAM
T2 sequence (P0ABJ1 25-315, further chain): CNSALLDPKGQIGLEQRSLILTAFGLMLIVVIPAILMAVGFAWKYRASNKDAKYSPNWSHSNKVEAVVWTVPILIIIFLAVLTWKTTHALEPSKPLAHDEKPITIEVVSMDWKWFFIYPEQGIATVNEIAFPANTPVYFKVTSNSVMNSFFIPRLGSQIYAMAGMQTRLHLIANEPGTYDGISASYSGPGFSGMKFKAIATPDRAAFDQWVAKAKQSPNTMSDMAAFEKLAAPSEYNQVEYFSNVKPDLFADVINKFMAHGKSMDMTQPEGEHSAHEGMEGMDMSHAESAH
T2 sequence (P0ABI8 whole entry): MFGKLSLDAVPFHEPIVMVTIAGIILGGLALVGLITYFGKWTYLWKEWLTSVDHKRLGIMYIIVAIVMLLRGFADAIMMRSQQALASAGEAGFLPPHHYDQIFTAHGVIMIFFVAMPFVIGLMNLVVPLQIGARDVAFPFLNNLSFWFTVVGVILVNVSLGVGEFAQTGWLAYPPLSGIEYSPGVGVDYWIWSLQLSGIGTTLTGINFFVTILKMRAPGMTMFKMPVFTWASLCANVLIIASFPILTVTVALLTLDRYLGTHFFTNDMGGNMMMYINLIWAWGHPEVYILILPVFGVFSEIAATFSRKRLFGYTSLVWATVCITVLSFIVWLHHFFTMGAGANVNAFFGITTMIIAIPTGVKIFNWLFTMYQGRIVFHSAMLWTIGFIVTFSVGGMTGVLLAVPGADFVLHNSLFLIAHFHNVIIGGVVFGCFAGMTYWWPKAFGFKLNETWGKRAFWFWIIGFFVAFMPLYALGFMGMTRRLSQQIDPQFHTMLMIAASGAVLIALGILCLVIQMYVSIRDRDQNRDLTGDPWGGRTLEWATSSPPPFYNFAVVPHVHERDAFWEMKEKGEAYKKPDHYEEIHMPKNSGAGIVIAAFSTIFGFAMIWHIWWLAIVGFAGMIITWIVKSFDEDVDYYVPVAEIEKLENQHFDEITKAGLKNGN
Method: as §3
Because it was claimed that ND-011992 is an inhibitor specific for bd oxidases, we also determined its IC50 towards the isolated bo3 oxidase. As bd oxidases, bo3 oxidase is also a quinol oxidase.
The duroquinol:oxygen oxidoreductase activity of isolated E. coli bd-I, bd-II and bo3 oxidase was determined by monitoring the oxygen consumption with a Clark-type oxygen electrode (Oxyview System, Hansatech Instruments)[20],[33]. All steps were conducted at 30 °C. The reaction chamber was filled with 2 mL 20 mM MOPS, 20 mM NaCl, 0.003% LMNG, pH 7.0. […] The non-enzymatic reaction rate was determined. […] Each data point was measured in triplicates. […]

E. coli bd-I oxidase = target: T3, E. coli bd-I oxidase (Escherichia coli, UniProt P0ABJ9); experiment: Duroquinol:oxygen oxidoreductase activity of isolated bd-I oxidase; assay type: biochemical
T3 construct: His-tag; made in house; host or cells: E. coli BL21*Δcyo/pET28b(+)::cydAhisBX
T3 sequence (P0ABJ9 whole entry): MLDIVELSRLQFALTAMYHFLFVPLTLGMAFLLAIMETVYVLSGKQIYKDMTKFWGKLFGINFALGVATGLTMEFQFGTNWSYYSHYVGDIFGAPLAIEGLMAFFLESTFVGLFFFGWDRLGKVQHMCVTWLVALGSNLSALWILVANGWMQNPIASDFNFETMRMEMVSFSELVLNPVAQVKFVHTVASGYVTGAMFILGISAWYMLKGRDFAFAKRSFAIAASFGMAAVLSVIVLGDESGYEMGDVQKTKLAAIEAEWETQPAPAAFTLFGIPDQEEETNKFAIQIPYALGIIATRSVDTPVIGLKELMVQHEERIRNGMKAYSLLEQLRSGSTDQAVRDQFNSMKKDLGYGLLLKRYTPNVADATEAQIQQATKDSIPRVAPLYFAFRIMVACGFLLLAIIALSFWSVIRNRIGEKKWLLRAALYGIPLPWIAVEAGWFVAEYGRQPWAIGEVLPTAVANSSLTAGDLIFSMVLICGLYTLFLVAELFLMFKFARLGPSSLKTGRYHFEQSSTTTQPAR
T3 sequence (P56100 whole entry, further chain): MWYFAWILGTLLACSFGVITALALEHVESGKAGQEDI
T3 sequence (P0ABK2 whole entry, further chain): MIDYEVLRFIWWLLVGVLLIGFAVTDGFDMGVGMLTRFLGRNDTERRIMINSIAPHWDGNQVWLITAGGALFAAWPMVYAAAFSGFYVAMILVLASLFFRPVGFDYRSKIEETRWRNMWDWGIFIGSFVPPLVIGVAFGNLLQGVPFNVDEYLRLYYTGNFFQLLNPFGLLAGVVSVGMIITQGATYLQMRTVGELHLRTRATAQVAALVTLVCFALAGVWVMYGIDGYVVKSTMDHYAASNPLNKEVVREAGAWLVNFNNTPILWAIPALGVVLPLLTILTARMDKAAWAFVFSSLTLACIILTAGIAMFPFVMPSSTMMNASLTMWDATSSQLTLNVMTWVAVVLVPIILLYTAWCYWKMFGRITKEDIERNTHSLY
Method: as §3, §4, §5

FC(F)(F)c1ccc(Oc2ccc(Nc3ncnc4ccccc34)cc2)cc1 [ND-011992, N-(4-(4-(trifluoromethyl)phenoxy)phenyl)quinazolin-4-amine]
pIC50 [1]: 6.59
pIC50 (mitochondrial complex I): 5.49
residual activity (mitochondrial complex I; bovine heart mitochondrial membranes, NADH oxidase activity): about 20%
pIC50 ([2]; E. coli BL21*Δcyo membranes, NADH as substrate, 30 °C): 6.37
pIC50 (E. coli bd-II oxidase): 5.89
residual activity (E. coli bd-II oxidase; isolated bd-II oxidase, partial inhibition in titration): about 20%
pharmacokinetic properties [3]: poor
pIC50 (respiratory complex I): 6.92
pIC50 (E. coli bo3 oxidase): 5.61
residual activity (E. coli bo3 oxidase; isolated bo3 oxidase, partial inhibition in titration): about 20%
pIC50 (E. coli bd-I oxidase): 6.20
residual activity (E. coli bd-I oxidase; isolated bd-I oxidase, partial inhibition in titration): about 20%

FC(F)(F)c1ccc(Oc2ccc(Nc3ncnc4ccc(Br)cc34)cc2)cc1 [compound 2, 6-bromo-N-(4-(4-(trifluoromethyl)phenoxy)phenyl)quinazolin-4-amine]
effect on the NADH oxidase activity of E. coli membranes ([2]; micromolar concentration range): no effect
pIC50 (E. coli bd-II oxidase): 6.89
pIC50 (E. coli bd-I oxidase): 5.99

— publication PMC10382516, “Exploring ND-011992, a quinazoline-type inhibitor targeting quinone reductases and quinol oxidases” (Scientific Reports, 2023)
